# Experimental data as given in patent US4584377A, “Novel Fredericamycin A derivatives” (SS Pharmaceutical Co., Ltd., priority 1983, dated 1986).
# Read-outs that look alike come from different tables or passages of the source.
# What was measured:
# Salmonella typhi TD = experiment: MIC, antibacterial activity (agar culture); format: cell-based; details: Salmonella enterica, read-out: Minimum inhibitory concentration MIC
# [1] = tested on: Cladosporium fulvum IAM 5006; experiment: MIC, yeasts and molds (agar culture); format: cell-based; details: Fulvia fulva, IAM5006, 28° C., 120 hours, glucose-peptone agar, read-out: Minimum inhibitory concentration MIC
# [2] = tested on: Staphylococcus aureus FDA 209P; experiment: MIC, antibacterial activity (agar culture); format: cell-based; details: FDA209P, 37° C., 18-20 hours, Mueller-Hinton agar, read-out: Minimum inhibitory concentration MIC
# [3] = tested on: Trichophyton mentagrophytes QM 248; experiment: MIC, yeasts and molds (agar culture); format: cell-based; details: QM248, 28° C., 120 hours, glucose-peptone agar, read-out: Minimum inhibitory concentration MIC
# [4] = tested on: Penicillium chrysogenum ATCC 6010; experiment: MIC, yeasts and molds (agar culture); format: cell-based; details: ATCC6010, 28° C., 120 hours, glucose-peptone agar, read-out: Minimum inhibitory concentration MIC
# Proteus vulgaris OXK = experiment: MIC, antibacterial activity (agar culture); format: cell-based; details: 37° C., 18-20 hours, Mueller-Hinton agar, read-out: Minimum inhibitory concentration MIC
# [5] = tested on: Streptococcus faecalis IFO 12964; experiment: MIC, antibacterial activity (agar culture); format: cell-based; details: Enterococcus faecalis, IFO12964, 37° C., 18-20 hours, Mueller-Hinton agar, read-out: Minimum inhibitory concentration MIC
# [6] = tested on: Gibberella fujikuroi IAM 8046; experiment: MIC, yeasts and molds (agar culture); format: cell-based; details: Fusarium fujikuroi, IAM8046, 28° C., 120 hours, glucose-peptone agar, read-out: Minimum inhibitory concentration MIC
# [7] = tested on: Helmintsporium sesamum IAM 5012; experiment: MIC, yeasts and molds (agar culture); format: cell-based; details: 28° C., 120 hours, glucose-peptone agar, read-out: Minimum inhibitory concentration MIC
# Meth-A fibrosarcoma = experiment: Antitumor effect, survival of tumor-inoculated mice; format: in vivo, CDF1 mice; details: intraperitoneally, once a day for 10 days
# Description: (§1) Antitumor effects of some Fredericamycin A derivatives against Ehrlich carcinoma, Meth-A fibrosarcoma and mouse leukemia P-388 were tested in accordance with the following procedures. Antitumor effects against Ehrlich carcinoma and Meth-A fibrosarcoma are expressed by percentage of mean survival time of test and control animals. Antitumor effects against P-388 are expressed by percentage of median survival time of test and control animals.
# (§2) (ii) Meth-A fibrosarcoma and mouse leukemia P-388:
# (§3) 1×10^6 tumor cells were inoculated to CDF1 mice (.male., Charles River Japan Inc.) intraperitoneally. Each tested compound was given intraperitoneally once a day for 10 days from 1 day after tumor inoculation.
# [8] = tested on: Staphylococcus epidermidis ATCC 12228; experiment: MIC, antibacterial activity (agar culture); format: cell-based; details: ATCC12228, 37° C., 18-20 hours, Mueller-Hinton agar, read-out: Minimum inhibitory concentration MIC
# Saccharomyces ruxii 6507 = experiment: MIC, yeasts and molds (agar culture); format: cell-based; details: 28° C., 120 hours, glucose-peptone agar, read-out: Minimum inhibitory concentration MIC
# [9] = tested on: Micrococcus lysodeikticus IFO 3333; experiment: MIC, antibacterial activity (agar culture); format: cell-based; details: Micrococcus luteus, IFO3333, 37° C., 18-20 hours, Mueller-Hinton agar, read-out: Minimum inhibitory concentration MIC
# [10] = tested on: Aspergillus oryzae IFM 4014; experiment: MIC, yeasts and molds (agar culture); format: cell-based; details: IFM4014, 28° C., 120 hours, glucose-peptone agar, read-out: Minimum inhibitory concentration MIC
# Ehrlich carcinoma = experiment: Antitumor effect, survival of tumor-inoculated mice; format: in vivo, ICR mice; details: Mus musculus, ip, 240 h, intraperitoneally, once a day for 10 days, read-out: percentage of mean survival time of test and control animals
# [11] = tested on: Bacillus subtilis ATCC 6633; experiment: MIC, antibacterial activity (agar culture); format: cell-based; details: ATCC6633, 37° C., 18-20 hours, Mueller-Hinton agar, read-out: Minimum inhibitory concentration MIC
# [12] = tested on: Klebsiella pneumoniae ATCC 10031; experiment: MIC, antibacterial activity (agar culture); format: cell-based; details: ATCC10031, 37° C., 18-20 hours, Mueller-Hinton agar, read-out: Minimum inhibitory concentration MIC
# Shigella flexneri 2b = experiment: MIC, antibacterial activity (agar culture); format: cell-based; details: 37° C., 18-20 hours, Mueller-Hinton agar, read-out: Minimum inhibitory concentration MIC
# [13] = tested on: Candida albicans NHL 4019; experiment: MIC, yeasts and molds (agar culture); format: cell-based; details: NHL4019, 28° C., 120 hours, glucose-peptone agar, read-out: Minimum inhibitory concentration MIC
# [14] = tested on: Debaryomyces Kloecheri IFO 0015; experiment: MIC, yeasts and molds (agar culture); format: cell-based; details: IFO0015, 28° C., 120 hours, glucose-peptone agar, read-out: Minimum inhibitory concentration MIC
# [15] = tested on: Staphylococcus aureus TERAGIMA; experiment: MIC, antibacterial activity (agar culture); format: cell-based; details: 37° C., 18-20 hours, Mueller-Hinton agar, read-out: Minimum inhibitory concentration MIC
# [16] = tested on: Aspergillus niger ATCC 9642; experiment: MIC, yeasts and molds (agar culture); format: cell-based; details: ATCC9642, 28° C., 120 hours, glucose-peptone agar, read-out: Minimum inhibitory concentration MIC
# [17] = tested on: Microsporum gypseum IFO 8231; experiment: MIC, yeasts and molds (agar culture); format: cell-based; details: Nannizzia gypsea, IFO8231, 28° C., 120 hours, glucose-peptone agar, read-out: Minimum inhibitory concentration MIC
# Sarcina lutea ATCC 9341 = experiment: MIC, antibacterial activity (agar culture); format: cell-based; details: Micrococcus luteus, ATCC9341, 37° C., 18-20 hours, Mueller-Hinton agar, read-out: Minimum inhibitory concentration MIC
# [18] = tested on: Staphylococcus aureus Smith; experiment: MIC, antibacterial activity (agar culture); format: cell-based; details: 37° C., 18-20 hours, Mueller-Hinton agar, read-out: Minimum inhibitory concentration MIC
# [19] = tested on: Pseudomonas aeruginosa IFO 13736; experiment: MIC, antibacterial activity (agar culture); format: cell-based; details: IFO13736, 37° C., 18-20 hours, Mueller-Hinton agar, read-out: Minimum inhibitory concentration MIC
# Seratia marcescens NHL = experiment: MIC, antibacterial activity (agar culture); format: cell-based; details: 37° C., 18-20 hours, Mueller-Hinton agar, read-out: Minimum inhibitory concentration MIC
# [20] = tested on: Piricularia oryzae IAM 5016; experiment: microbe, parasite or virus in culture; format: cell-based
# Escherichia coli 0-1 = experiment: MIC, antibacterial activity (agar culture); format: cell-based; details: 01, 37° C., 18-20 hours, Mueller-Hinton agar, read-out: Minimum inhibitory concentration MIC
# [21] = tested on: Fusarium moniliforme IAM 5062; experiment: MIC, yeasts and molds (agar culture); format: cell-based; details: Fusarium verticillioides, IAM5062, 28° C., 120 hours, glucose-peptone agar, read-out: Minimum inhibitory concentration MIC
# physchem = format: physicochemical; details: 10 μg/ml in dimethylsulfoxide/physiological saline
# Description: The stability of some Fredericamycin A derivatives and Fredericamycin A in their aqueous solutions were tested in accordance with the following procedures.
# The test compounds were individually dissolved in dimethylsulfoxide, followed by dilution of the resulting solutions with physiological saline to adjust the final concentrations of the test compounds and Fredericamycin to 10 μg/ml respectively. The thus-prepared test solutions were then subjected to high performance liquid chromatography after predetermined time intervals to measure the percentage remainders of the test compounds.
# [22] = prior art statement; cited from earlier work
# various microorganisms [23] = details: prior art statement; cited from earlier work
# various microorganisms [24] = experiment: Antibacterial activities against the tested microorganisms (general statement); format: cell-based; details: for each of the tested microorganism (Table 1)
# Description: It should be noted that the MIC of Fredericamycin A was 100 μg/ml or more for each of the tested microorganism.
# Culture conditions for the test microorganisms:
# Inoculum size: 1×10^6 cells/ml. In the case of bacteria, each bacterium was cultured at 37° C. for 18-20 hours on a Mueller-Hinton agar (product of Difco Corp.). In the case of yeasts and molds, each microorganism was cultured at 28° C. for 120 hours on a glucose-peptone agar.
# mouse leukemia P-388 = experiment: Antitumor effect, survival of tumor-inoculated mice; format: in vivo, CDF1 mice; details: intraperitoneally, once a day for 10 days
# Description: as §1, §2, §3
smiles,measurement,setting,value
"C/C=C/C=C/c1cc2cc3c(c(O)c2c(=O)[nH]1)C1(CC3)C(=O)c2c(OC(C)=O)c3c(c(OC(C)=O)c2C1=O)C(=O)C(OC)=CC3=O (stereo not shown) [Compound 1, Fredericamycin A diacetate]",MIC,Salmonella typhi TD,> 100 µg/mL
same,MIC,[1],1.56 µg/mL
same,MIC,[2],50 µg/mL
same,MIC,[3],0.39 µg/mL
same,MIC,[4],0.78 µg/mL
same,MIC,Proteus vulgaris OXK,> 100 µg/mL
same,MIC,[5],1.56 µg/mL
same,MIC,[6],> 100 µg/mL
same,MIC,[7],0.78 µg/mL
same,percentage of mean survival time of test and control animals,Meth-A fibrosarcoma; 0.25 mg/kg/day,127%
same,percentage of mean survival time of test and control animals,Meth-A fibrosarcoma; 0.5 mg/kg/day,191%
same,percentage of mean survival time of test and control animals,Meth-A fibrosarcoma; 1.0 mg/kg/day,242%
same,MIC,[8],0.1 µg/mL
same,MIC,Saccharomyces ruxii 6507,0.39 µg/mL
same,MIC,[9],0.78 µg/mL
same,MIC,[10],1.56 µg/mL
same,response vs control in vivo at 0.125 mg/kg/day,Ehrlich carcinoma; 0.125 mg/kg/day,147%
same,response vs control in vivo at 0.25 mg/kg/day,Ehrlich carcinoma; 0.25 mg/kg/day,267%
same,response vs control in vivo at 0.5 mg/kg/day,Ehrlich carcinoma; 0.5 mg/kg/day,295%
same,MIC,[11],0.39 µg/mL
same,MIC,[12],> 100 µg/mL
same,MIC,Shigella flexneri 2b,> 100 µg/mL
same,MIC,[13],> 100 µg/mL
same,MIC,[14],100 µg/mL
same,MIC,[15],12.5 µg/mL
same,MIC,[16],3.12 µg/mL
same,MIC,[17],0.39 µg/mL
same,MIC,Sarcina lutea ATCC 9341,0.39 µg/mL
same,MIC,[18],6.25 µg/mL
same,MIC,[19],> 100 µg/mL
same,MIC,Seratia marcescens NHL,> 100 µg/mL
same,MIC,[20]; 120 h; read-out: Minimum inhibitory concentration MIC,0.05 µg/mL
same,MIC,Escherichia coli 0-1,> 100 µg/mL
same,MIC,[21],50 µg/mL
C/C=C/C=C/c1cc2cc3c(c(O)c2c(=O)[nH]1)C1(CC3)C(=O)c2c(O)c3c(c(O)c2C1=O)C(=O)C(OC)=CC3=O (stereo not shown) [Fredericamycin A],Percentage remainder,physchem; 0 hr.,100%
same,remaining at 3 h,"physchem; 3 hrs., read-out: Percentage remainder",78.9%
same,remaining at 6 h,"physchem; 6 hrs., read-out: Percentage remainder",64%
same,remaining at 24 h,"physchem; 24 hrs., read-out: Percentage remainder",38.1%
same,remaining at 48 h,"physchem; 48 hrs., read-out: Percentage remainder",27.3%
same,remaining at 72 h,"physchem; 72 hrs., read-out: Percentage remainder",18.4%
same,stability,[22],low
same,antibacterial activities,various microorganisms [23],weak
same,MIC,various microorganisms [24],≥ 100 µg/mL
"CCCCCc1cc2cc3c(c(O)c2c(=O)[nH]1)C1(CC3)C(=O)c2c(OC(C)=O)c3c(c(OC(C)=O)c2C1=O)C(=O)C(OC)=CC3=O (stereo not shown) [Compound 18, diacetyltetrahydrofredericamycin A]",MIC,[3],> 100 µg/mL
same,MIC,[4],> 100 µg/mL
same,MIC,[5],25 µg/mL
same,percentage of median survival time of test and control animals,mouse leukemia P-388; 2.0 mg/kg/day,138%
same,percentage of median survival time of test and control animals,mouse leukemia P-388; 4.0 mg/kg/day,142%
same,percentage of median survival time of test and control animals,mouse leukemia P-388; 8.0 mg/kg/day,147%
same,MIC,[8],0.78 µg/mL
same,MIC,Saccharomyces ruxii 6507,> 100 µg/mL
same,MIC,[9],25 µg/mL
same,response vs control in vivo at 2 mg/kg/day,Ehrlich carcinoma; 2.0 mg/kg/day,125%
same,response vs control in vivo at 4 mg/kg/day,Ehrlich carcinoma; 4.0 mg/kg/day,> 188%
same,response vs control in vivo at 8 mg/kg/day,Ehrlich carcinoma; 8.0 mg/kg/day,> 212%
same,MIC,[11],50 µg/mL
same,MIC,[13],> 100 µg/mL
same,MIC,[14],> 100 µg/mL
same,MIC,[16],> 100 µg/mL
same,MIC,Sarcina lutea ATCC 9341,25 µg/mL
same,MIC,[18],25 µg/mL
same,MIC,[19],> 100 µg/mL
same,MIC,"[20]; 120 h, read-out: Minimum inhibitory concentration MIC",0.78 µg/mL
same,MIC,Escherichia coli 0-1,> 100 µg/mL
